Patent US6265450A, “Anti-stress composition” (Suntory Limited, priority 1995, dated 2001)
Read-outs that look alike come from different tables or passages of the source.

Key:
thymus weight = test: Effect of restraint stress on decreased thymus weight; format: in vivo, male C57BL/6 mice; details: Astaxanthin (Roche) in MCT; for minimal effective dose: Mus musculus, po
Text: Six week old, male C57BL/6 mice were purchased from Japan Clea Co., Ltd., and after preliminarily keeping for 1 week in an SPF (specific pathogen free) environment, were used in the experiment at age 7 weeks.
The mice were divided into a restrained group (16 mice) and a non-restrained group (5 mice). The unrestrained group was used as a control group. The restrained group was further divided into 4 groups of 4 mice each, and designated as the restrained control group, vitamin E group, β-carotene group and astaxanthin group. The restrained groups were restrained for 20 hours in metal restraint cages under conditions of minimal body movement and access to drinking water to induce restraint stress.
ASTAX 5000 manufactured by Itano Refrigated Food Co., Ltd. (containing 3.57% astaxanthin diester and 1.53% astaxanthin monoester), extracted and purified from krill, was used for astaxanthin. ASTAX 5000 was dissolved in medium chain fatty acid triglyceride (MCT) to a concentration of 100 mg/10 ml as astaxanthin content and used as the test substance solution. Vitamin E and β-carotene were dissolved in MCT, and MCT only was administered to the control group. The test substances were given orally three times on the day before restraint, immediately after restraint, and on the day after restraint at a dose of 100 mg/kg, for each test substance.
The mice were sacrificed by dislocation of the cervical vertebra 48 hours after the start of restraint. The thymus gland was excised and weighed.
Astaxanthin (Roche) was dissolved in MCT to astaxanthin concentrations of 0.04 mg/10 ml, 0.2 mg/10 ml, 1.0 mg/10 ml and 5.0 mg/10 ml to prepare the test substance solutions.
Thymus weight and spleen-origin NK cell activity were measured using the same procedures as described in Examples 1 and 2.

P815 mastocytoma = test: Effect of restraint stress on promotion of cancer metastasis (transplanted nodes on liver surface); format: in vivo, male DBA/2 mice; details: Roche synthetic astaxanthin, 1 mg/kg by gavage three times in MCT; 16 days after transplantation; FIG. 7
Protocol: 7 week old, male DBA/2 mice were purchased from Japan Clea Co., Ltd., and after housing on a preliminary basis for 1 week in a specific pathogen free (SPF) atmosphere, the animals were used in the experiment at age 8 weeks.
The experimental mice were divided into three groups consisting of a restraint stress non-loaded control group (8 mice), a restraint stress loaded control group (8 mice) and a restraint stress loaded astaxanthin group (9 mice). Astaxanthin was administered orally by gavage three times on the day before restraint, immediately after the start of restraint and the day after the start of restraint at a dose of 1 mg/kg (MCT solution) each. Roche astaxanthin, a synthetic form of astaxanthin, was used for the test substance, while the control groups were orally administered MCT only three times by gavage. Restraint stress loading was performed under the same conditions as Example 1.
Mastocytoma subcultured in the abdominal cavities of DBA/2 mice in this laboratory was used for the P815 mastocytoma (DBA/2 mouse cutaneous mastocytoma). 1×10^4 cells/animal were transplanted into the caudal vein of each animal. […] The liver was excised 16 days after transplantation and after Vaughn's fixation, the number of transplanted nodes on the liver surface was measured.

[1] = cited from earlier work
antibody production = details: cited from earlier work
cancer cell = details: cited from earlier work

CC1=C(/C=C/C(C)=C/C=C/C(C)=C/C=C/C=C(C)/C=C/C=C(C)/C=C/C2=C(C)C(=O)[C@@H](O)CC2(C)C)C(C)(C)C[C@H](O)C1=O [astaxanthin]
inhibitory effect on decreases in thymus weight caused by stress loading (thymus weight; 0.04-5.0 mg/10 ml, FIG. 5): dose-dependent inhibitory effects
minimal effective dose (thymus weight; FIG. 5, read-out: doses at which the effect on decreased thymus weight was significant): ≥ 1 mg/kg
minimal effective dose (thymus weight; suggested by thymus weight and NK cell activity, read-out: minimum effective dose of the anti-stress effect): ~1 mg/kg
inhibition of promotion of cancer metastasis caused by stress (P815 mastocytoma): remarkable inhibition of promotion of cancer metastasis
oxidation and decomposition in air [1]: easily oxidized and decompose relatively easily in air
antibody production activity (antibody production): antibody production activity
cancer cell growth inhibitory activity (cancer cell): cancer cell growth inhibitory activity
